Test results published in patent US4959368A, “Therapeutic agent for neurological diseases” (Mitsui Petrochemical Industries Ltd., priority 1986, dated 1990).

Columns and labels:
[1] = test system: mouse neuroblastoma cell line neuro-2a; assay: Activity on cell line neuro-2a (simple method); assay type: cell-based
In short: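 Cells (2–6×10^4 per dish) grown 1–2 days at 37 °C, then switched to serum-free RPMI/MEM with compound in PBS for 24 h. Live cells counted by erythrosine exclusion; score is fraction of cells bearing neurites at least as long as the cell's long diameter, from photos.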

[2] = test system: rats with lesioned nigral dopaminergic nerve cells; assay: Methamphetamine-induced rotational movement of rats with lesioned nigral dopaminergic nerve cells after transplantation of fetal cerebral cells; assay type: in vivo, rat (female Wistar); conditions: number within one minute
Experimental: Rats and mice models of central nervous disorders were prepared, and the pharmacological effects of the compounds (I) of this invention were tested. Specifically, nigral dopamine cells of the rat brain were chemically destroyed by injecting a very small amount of 6-hydroxydopamineto induce motor imbalance. Two weeks later, dopamine cells of fetal brain were transplanted in the caudate nucleus into the lesioned side of the rat brain and an attempt was made to improve the motor trouble. Specifically, beginning on the day of transplantation, the compound (I) of the invention was intraperitoneally administered every day over 2 weeks, and the activity of the compounds (I) of the invention on the improvement of the motor imbalance and the growth of the transplanted cells was examined.
Promoting effect on the improvement of motor imbalance due to injury of the rat's brain cells by transplantation of fetal cerebral cells:
Nigral dopaminergic nerve cells at the left side of the brain of 4-week old female Wistar rats (body weight 100 g) were lesioned by injecting a very small quantity of 6-hydroxydopamine. […] Upon administration of methamphethamine (5 mg/kg, i.p.) to the rats having the lesioned nigral dopaminergic nerve cells, they began rotational movement toward the lesioned side.
After two weeks from the destruction by the administration of the drug, portions of the […] containing dopamine cells (i.e., substantia nigra and the tagmentum at the abdomen side) were cut from the brain of a fetal rat of 14 to 17 days of age, cut finely, and treated with trypsin. Then, the extracted tissues were incubated at 37° C. for 30 minutes, and the tissues were subjected to pipetting to form a suspension. Five microliters of the suspension was transplanted each into two sites of the caudate nucleus of the lesioned side (10 microliters in total, about 10^5 cells).
Each of the compounds (I) in a dose of 100 mg/kg (i.p.) was administered every day over two weeks from the day of transplantation. The rotational movements induced by administration of methamphetamine were examined 2 weeks and 1 week before, and 2 weeks and 4 weeks after, the transplantation and the administration of the drug. The number of rotational movements within one minute was counted at intervals of 10 minutes after the administration of methamphetamine, and the total number of rotational movements counted six times was averaged to find a mean number of the rotational movements.

[3] = test system: rats with crushed sciatic nerves; assay: Curative effect on rats with crushed sciatic nerves; assay type: in vivo, rat (male Wistar); conditions: for Rate of recovery in muscle weight: soleus muscle, saline 51.8 ± 1.2
Experimental: Curative effect on rats with crushed sciatic nerves:
The curing effect of the compound (I) of the invention was tested on rats having crushed scietic nerves as a model of peripheral nervous disorder using (1) a change in the action of the hind paw with the crushed sciatic nerves and (2) a change in the weight of the muscle as an index of the course of degeneration and regeneartion of peripheral nerves.
In the experiment, male Wistar rats (6 weeks old), seven per group, were used. The sciatic nerves were crushed by a method similar to the method of Yamatsu et al. (see Kiyomi Yamatsu, Takenori Kaneko, Akifumi Kitahara and Isao Ohkawa, Journal of Japanese Pharmacological Society, 72, 259-268 (1976) and the method of Hasegawa et al. (see Kazuo Hasegawa, Naoji Mikuni and Yutaka Sakai, Journal of Japanese Pharmacological Society, 74, 721-734 (1978). Specifically, under anesthesia with pentobarbital (40 mg/kg, i.p.), the left side sciatic nerve was exposed at the femur and that site of the exposed scietic nerve which was 5 mm to the center from the branched part between the N. tibialis and the N. suralis was crushed using a modified artery, klomme, having a width of 2 mm and a gap of 0.1 mm. After the operation, the rats were assigned to the test groups at random.
Compound No. 408 was selected as the compound (I) of the invention and intraperitoneally administered to the rats once a day from the day of operation to the 22nd day. A group to which mecobalamin (made by Gedeon Richter Ltd.) was administered and a group to which 0.9% saline was administered were used as controls. The following items were measured with the lapse of time (on the 1st, 4th, 7th, 10th, 14th, 17th, 21st, and 23rd days after the crushing of the scietic nerves).
(1) Change in the action of the side of the hind paw with the crushed scietic nerve:
By a method similar to the method of Hasegawa [Hasegawa, K., Experientia, 34, 750-751 (1978)], the distance between the first and fifth digits of the hind paw was measured.
The ratio of the measured distance to the normal distance was calculated and expressed in percentage (%).
(2) Change in the weight of muscle
It is known that removal of a nerve or its disorder causes atrophy of the muscle which is under its control, and the atrophy is gradually cured by re-control by the nerve. For this reason, a change in the weight of the muscle, which is quantitative, was selected as an index. Twenty-three days after the operation, the soleus muscles of both sides of paws were extracted under anesthesia with pentobarbital, and their weights were measured. The ratio of the weight of the soleus muscle on the crushed side to that of normal side was calculated and expressed in percentage (%).

[4] = Table 2 neuro-2a Run No. 2, 1 μg/ml, control 7.9
[5] = Table 2 neuro-2a Run No. 2, 10 μg/ml, control 7.9
[6] = Run No. 1, 1 week before transplantation, saline 12.23 ± 4.88
[7] = Run No. 1, 2 weeks after transplantation, 100 mg/kg i.p. daily over two weeks, saline 5.9 ± 2.75
[8] = Run No. 1, 2 weeks before transplantation, saline 10.9 ± 4.57
[9] = Run No. 1, 4 weeks after transplantation, 100 mg/kg i.p. daily over two weeks, saline 3 ± 3.23
[10] = Run No. 2, 1 week before transplantation, saline 10 ± 5.3
[11] = Run No. 2, 2 weeks after transplantation, 100 mg/kg i.p. daily over two weeks, saline 4.4 ± 5.9
[12] = Run No. 2, 2 weeks before transplantation, saline 12 ± 3.95
[13] = Run No. 2, 4 weeks after transplantation, 100 mg/kg i.p. daily over two weeks, saline 1.5 ± 3.2

Row | Compound | Average of the proportions [1, 4] [%] | Average of the proportions [1, 5] [%] | Number of rotational movements (mean ± S.D.) [2, 6] | Number of rotational movements (mean ± S.D.) [2, 7] | Number of rotational movements (mean ± S.D.) [2, 8] | Number of rotational movements (mean ± S.D.) [2, 9] | Number of rotational movements (mean ± S.D.) [2, 10] | Number of rotational movements (mean ± S.D.) [2, 11] | Number of rotational movements (mean ± S.D.) [2, 12] | Number of rotational movements (mean ± S.D.) [2, 13] | also measured
1 | CN1C(=O)Cc2cnc(N3CCNCC3)nc21 [Compound 408] | 27.73 | 25.05 | 12.27 ± 2.48 | 4.9 ± 2.38 | 8.57 ± 2.36 | 2.03 ± 1.56 | 11.06 ± 4.5 | 1.94 ± 2.0 | 10.94 ± 6.4 | 1.53 ± 2.1 | Rate of recovery of the interdigit distance ([3]; 21st day, 3 mg/kg ip once a day, saline 62.0 ± 2.4): 70.9 ± 3.5%; Rate of recovery of the interdigit distance ([3]; 21st day, 10 mg/kg ip once a day, saline 62.0 ± 2.4, *P < 0.05): 74.9 ± 3.1%; Rate of recovery of the interdigit distance ([3]; 21st day, 30 mg/kg ip once a day, saline 62.0 ± 2.4, ***P < 0.001): 79.6 ± 2.9%; Rate of recovery of the interdigit distance ([3]; 21st day, 100 mg/kg ip once a day, saline 62.0 ± 2.4): 68.9 ± 4.3%; Rate of recovery of the interdigit distance ([3]; 23rd day, 3 mg/kg ip once a day, saline 71.1 ± 3.4): 80.1 ± 3.6%; Rate of recovery of the interdigit distance ([3]; 23rd day, 10 mg/kg ip once a day, saline 71.1 ± 3.4, *P < 0.05): 82.3 ± 2.7%; Rate of recovery of the interdigit distance ([3]; 23rd day, 30 mg/kg ip once a day, saline 71.1 ± 3.4, *P < 0.05): 85.4 ± 4.1%; Rate of recovery of the interdigit distance ([3]; 23rd day, 100 mg/kg ip once a day, saline 71.1 ± 3.4): 77.3 ± 6.0%; Rate of recovery in muscle weight ([3]; 23rd day, 3 mg/kg ip, *P < 0.05): 58.0 ± 2.0%; Rate of recovery in muscle weight ([3]; 23rd day, 10 mg/kg ip, *P < 0.05): 59.4 ± 2.2%; Rate of recovery in muscle weight ([3]; 23rd day, 30 mg/kg ip, *P < 0.05): 59.3 ± 2.7%; Rate of recovery in muscle weight ([3]; 23rd day, 100 mg/kg ip, *P < 0.05): 63.9 ± 3.5%
2 | CN1Cc2nc(N3CCNCC3)ncc2C1=O [Compound 604] | 19.86 | 17.20 | 10.4 ± 5.75 | 2.99 ± 2.91 | 10.6 ± 3.82 | 3.37 ± 1.65 | 11.28 ± 4.0 | 1.03 ± 2.9 | 13.33 ± 4.9 | 0.75 ± 2.8 | Average of the proportions ([1]; Table 2 neuro-2a Run No. 3, 0.01 μg/ml, control 2.0): 10.7%; Average of the proportions ([1]; Table 2 neuro-2a Run No. 3, 0.1 μg/ml, control 2.0): 16.50%; Average of the proportions ([1]; Table 2 neuro-2a Run No. 3, 1 μg/ml, control 2.0): 11.25%
